From paper PMC5426667, “Action of tyrosinase on alpha and beta-arbutin: A kinetic study” (PLoS ONE, 2017)

Assays:
[1] = deprotonated form is the nucleophile; no reference given; cited from earlier work
Mushroom tyrosinase [2] = target: T1, Mushroom tyrosinase (Agaricus bisporus, UniProt C7FF04); test: Apparent inhibition of the monophenolase activity of tyrosinase (L-tyrosine as substrate, dopachrome at 475 nm); type: biochemical; settings: Lineweaver-Burk, 3 mM arbutin
Experimental: (§1) Mushroom tyrosinase (3130 U/mg) was obtained from Sigma (Madrid, Spain) and purified as previously described. Bradford’s method was used to determine the protein content using bovine serum albumin as standard.
(§2) Spectrophotometric assays were carried out with a PerkinElmer Lambda-35 spectrophotometer, online interfaced with a compatible PC 486DX microcomputer controlled by UV-Winlab software, where the kinetic data were recorded, stored, and analyzed.
The diphenolase activity of tyrosinase on L-dopa and the monophenolase activity on L-tyrosine were measured at 475 nm, the maximum absorption wavelength of dopachrome. To measure the activity of tyrosinase on L-tyrosine, the quantity of o-diphenol necessary to reach the steady state at time t = 0 was added. In this way, the characteristic lag period of the monophenolase activity, which complicates the measurement of the V0, was eliminated. This quantity is given by the equation R = [D]ss / [M]ss, where [D]ss and [M]ss are the concentrations of o-diphenol and monophenol respectively in the steady state with [M]ss ≈ [M]0. All the assays were carried out with R = 0.042. […]
The degrees of inhibition (i) were calculated using tyrosinase, L-dopa, L-tyrosine and the following formula: i (%) = [(V0-Vi)/V0] x 100, where V0 is the initial rate of the control and Vi the initial rate in the presence of the target molecule. […]

Mushroom tyrosinase [3] = target: T1, Mushroom tyrosinase; test: Kinetic characterization of arbutins as substrates of tyrosinase in the presence of MBTH; type: biochemical; settings: [E]0 = 100 nM, [MBTH]0 = 0.2 mM, DMF 2%, pH 7.0, 25°C; for Km: read-out: KM (Michaelis constant) as substrate of tyrosinase
Experimental: This adduct is oxidized by another molecule of o-quinone, leading to the accumulation of o-diphenol in the medium, so, the system reach the steady state. This assay method is highly sensitive, reliable, and precise. […] The sequence of reactions is described in S1B Fig. All of the assays were carried out at 25°C, using 30 mM phosphate buffer at pH 7.0. Three repetitions of each experiment were made. Initial rate values (V0) were calculated at different substrate concentrations. The assays were carried out in saturating conditions of O2 [47-49]. The data for V0 vs. [arbutin]0 were represented and fitted to the Michaelis-Menten equation using the Sigma Plot 9.0 program for Windows, providing the maximum rate (Vmax) and the Michaelis constant (KM). […] These compounds were solubilised by adding 2% (v/v) DMF to the reaction medium. […] KM and kcat values were obtained fitting by non-linear regression (Table 2) the initial rate values vs. the concentration of substrate to the Eq 1 (Fig 7 and 7 Inset).

Mushroom tyrosinase [4] = target: T1, Mushroom tyrosinase; test: Apparent inhibition of the diphenolase activity of tyrosinase (L-dopa as substrate, dopachrome at 475 nm); type: biochemical; set-up: purchased Sigma (Madrid, Spain); settings: for type of inhibition of the diphenolase activity: Lineweaver-Burk, 3 mM arbutin; for degree of inhibition of the diphenolase activity (maximum reached): [E]0 = 30 nM, [L-dopa]0 = 0.5 mM, arbutin up to 30 mM
Experimental: as §1, §2
The diphenolase activity of tyrosinase on L-dopa and the monophenolase activity on L-tyrosine were measured at 475 nm, the maximum absorption wavelength of dopachrome. To measure the activity of tyrosinase on L-tyrosine, the quantity of o-diphenol necessary to reach the steady state at time t = 0 was added. In this way, the characteristic lag period of the monophenolase activity, which complicates the measurement of the V0, was eliminated. This quantity is given by the equation R = [D]ss / [M]ss, where [D]ss and [M]ss are the concentrations of o-diphenol and monophenol respectively in the steady state with [M]ss ≈ [M]0. All the assays were carried out with R = 0.042.
All of the assays were carried out at 25°C, using 30 mM phosphate buffer at pH 7.0. Three repetitions of each experiment were made.
The degrees of inhibition (i) were calculated using tyrosinase, L-dopa, L-tyrosine and the following formula: i (%) = [(V0-Vi)/V0] x 100, where V0 is the initial rate of the control and Vi the initial rate in the presence of the target molecule. The initial rates were obtained by linear regression fitting of the initial portions of each experimental recording.

T1 sequence (C7FF04 1-392): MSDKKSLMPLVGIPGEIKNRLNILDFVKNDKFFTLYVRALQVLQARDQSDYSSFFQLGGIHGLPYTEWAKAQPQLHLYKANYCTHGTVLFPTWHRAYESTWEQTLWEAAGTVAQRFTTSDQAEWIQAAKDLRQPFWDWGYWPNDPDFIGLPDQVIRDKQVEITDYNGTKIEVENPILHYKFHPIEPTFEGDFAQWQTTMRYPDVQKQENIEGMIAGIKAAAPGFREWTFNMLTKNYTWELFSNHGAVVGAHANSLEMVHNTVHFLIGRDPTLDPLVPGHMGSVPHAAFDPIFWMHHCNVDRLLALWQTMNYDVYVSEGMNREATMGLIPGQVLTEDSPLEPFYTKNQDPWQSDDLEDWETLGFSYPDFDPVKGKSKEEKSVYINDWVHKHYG

Row | Compound | pKa [1] | type of inhibition of the monophenolase activity (Mushroom tyrosinase [2]) | kcat (catalytic constant) as substrate of tyrosinase (Mushroom tyrosinase [3]) | Km (Mushroom tyrosinase [3]) | type of inhibition of the diphenolase activity (Mushroom tyrosinase [4]) | degree of inhibition of the diphenolase activity (maximum reached) (Mushroom tyrosinase [4])
1 | Cl.Cn1c(=NN)sc2ccccc21.O [MBTH, 3-methyl-2-benzothiazolinone hydrazone hydrochloride hydrate] | 5.8 ± 0.4 |  |  |  |  | 
2 | OC[C@H]1O[C@H](Oc2ccc(O)cc2)[C@H](O)[C@@H](O)[C@@H]1O [α-Arbutin, (2R,3S,4S,5R,6R)-2-(hydroxymethyl)-6-(4-hydroxyphenoxy)oxane-3,4,5-triol] |  | apparent competitive inhibition | 4.43 ± 0.33 s⁻¹ | 6.5 ± 0.58 mM | apparent competitive inhibition | < 100%
3 | OC[C@H]1O[C@@H](Oc2ccc(O)cc2)[C@H](O)[C@@H](O)[C@@H]1O [β-Arbutin, (2R,3S,4S,5R,6S)-2-(hydroxymethyl)-6-(4-hydroxyphenoxy)oxane-3,4,5-triol] |  | apparent competitive inhibition | 3.77 ± 0.29 s⁻¹ | 3 ± 0.19 mM | apparent competitive inhibition | < 100%
